Molecular target: T1, Caspase-3 (Homo sapiens, UniProt P42574)
T1 sequence (P42574 whole entry): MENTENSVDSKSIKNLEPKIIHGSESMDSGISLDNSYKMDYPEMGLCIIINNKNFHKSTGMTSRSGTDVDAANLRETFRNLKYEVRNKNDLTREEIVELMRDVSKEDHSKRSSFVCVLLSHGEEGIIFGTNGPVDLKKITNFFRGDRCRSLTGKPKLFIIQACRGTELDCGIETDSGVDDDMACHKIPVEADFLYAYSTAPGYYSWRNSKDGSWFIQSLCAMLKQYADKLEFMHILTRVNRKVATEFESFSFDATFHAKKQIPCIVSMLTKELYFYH
Experiment: activation of caspase-3 zymogen – biochemical, absorbance, dose response (AID 489014)

| Structure (SMILES) | EC50 |
| --- | --- |
| O=c1c2c(-c3ccccc3)[nH]n(-c3ccccc3)c-2c(O)n1-c1ccccc1 [SMR000269383] | > 85.3 µM |
| O=C(CC1=NC2(CCCC2)Cc2ccccc21)C(=O)NN=Cc1ccccc1O [SMR000219463] | > 85.3 µM |
